Reference: patent US6777420B2, “Heterocyclic antibacterial compounds” (Microbiotix, Inc., priority 2001, dated 2004)
In brackets after ≈: the same amount, converted by molar mass. Marks after values point to notes of the source that are not given here.

Key:
E. fecium = assay: MIC determination, E. fecium; format: cell-based, Enterococcus fecium
Experimental: (§1) Minimal Inhibitory Concentration (MIC) determinations. […] Each drug is evaluated at five concentrations, with five data points at each dilution. MIC values (μg/ml) were determined against actively growing cultures in Heart-Brain Infusion (HBI) medium. Cell growth in cultures supplemented with a test compound was calculated as a percent of control at OD 600 nm after 16 to 18 hours at 37° C.

B. subtilis = assay: MIC determination, B. subtilis; format: cell-based, Bacillus subtilis
Experimental: as §1, with “C. This plate format conserves test compound and provides precise, quantitative data with low standard deviation determinations.” for “C.”

S. aureus (Smith) = assay: MIC determination, S. aureus (Smith); format: cell-based, Staphylococcus aureus
Experimental: as §1, with “C. This plate format conserves test compound and provides precise, quantitative data with low standard deviation determinations.” for “C.”

E. coli = assay: MIC determination, E. coli; format: cell-based, Escherichia coli
Experimental: as §1, with “C. This plate format conserves test compound and provides precise, quantitative data with low standard deviation determinations.” for “C.”

S. aureus = assay: MIC determination, S. aureus; format: cell-based, Staphylococcus aureus
Experimental: as §1, with “C. This plate format conserves test compound and provides precise, quantitative data with low standard deviation determinations.” for “C.”

E. fecalis = assay: MIC determination, E. fecalis; format: cell-based, Enterococcus fecalis
Experimental: as §1

[1] = test system: MSSA108 (methicillin sensitive S. aureus strain); assay: MIC determination, MSSA108; format: cell-based; details: Staphylococcus aureus, read-out: MIC (μg/ml) MSSA108
Experimental: as §1, with “C. This plate format conserves test compound and provides precise, quantitative data with low standard deviation determinations.” for “C.”
Compounds were also tested for antibacterial activity against certain clinically relevant strains, e.g., methicillin sensitive (MSSA) and methicillin resistant (MRSA) strains of Staphylococcus aureus.

[2] = test system: Staphylococcus aureus (Smith strain); assay: Protection of mice from lethal intraperitoneal infection, compound given intraperitoneally; format: in vivo; details: 15 minutes after infection
Experimental: FIG. 1B is a bar graph showing number of survivors in each group of five mice at 24 hours after intraperitoneal infection with 1×10^8 colony forming units (CFU) of Staphylococcus aureus (Smith strain) and followed 15 minutes post infection by administration of Compound 2 at a dose of 0 (Vehicle Control), 1, 3, and 10 mg of compound per kg of body weight. Vancomycin at a dose of 10 mg/kg of body weight served as a positive control for antibiotic activity. See text for details.
FIG. 2B is a bar graph showing number of survivors of a group of five mice at 24 hours after intraperitoneal infection with Staphylococcus aureus (Smith strain) as in FIG. 1B, except that Compound 10 was administered to each animal at 0, 0.1, 0.3, 1.0, 3.0, and 10 mg/kg body weight at 15 minutes post infection. Controls were the same as in FIG. 1B. See text for details.
FIG. 3B is a bar graph showing number of survivors in each group of five mice at 24 hours after intraperitoneal infection with Staphylococcus aureus (Smith strain) as in FIG. 1, except that 15 minutes after infection, the mice in each group received a dose of 0.5 mg/kg of body weight of compound 10, 4, 5, 6, 7, 8, or 12. Controls were the same as in FIG. 1. See text for details.
(§2) Swiss Webster mice, ca. 20 g each, were infected with Staphylococcus aureus (Smith strain) by the intraperitoneal route. Test compounds (2, 4, 5, 6, 7, 8, 10, 12) were dissolved in 10% dimethylsulfoxide in peanut oil to a concentration of 2 mg/ml. Vancomycin was used as positive control drug (i.e., protection from lethal infection). Fifteen minutes after infection, test compounds, vancomycin, or vehicle alone were given intraperitoneally to groups of five mice each. Animals were monitored for three days, and the number of mice surviving was tabulated for each treatment.

[3] = test system: enterococci or staphylococci strains, including MRSA and VRE strains; assay: In vivo activity of Compound 70 against intraperitoneal challenge, overall statement; details: mice; administration from distant parenteral sites (i.e., iv, sc, or im)
Experimental: (§3) Using the same basic procedure as described above, the in vivo efficacy of Compound 70 was also evaluated at various doses in mice infected with S. aureaus (Smith), MRSA 1094, Enterococcus faecalis, or vancomycin-resistant Enterococcus faecalis strain VRE 700802. […] Negative controls were mice infected that received no treatment. Mucin was employed as an adjuvant to facilitate bacterial infection in mice, where indicated.

B. subtilis Pol IIIC = biological target: T1, B. subtilis Pol IIIC (Bacillus subtilis, UniProt P13267); assay: Polymerase IIIC (Pol IIIC) assay, determination of Ki values; format: biochemical; details: Ki = concentration that reduces control polymerase activity by 50 percent
T1 construct: made in house
T1 sequence (P13267 whole entry): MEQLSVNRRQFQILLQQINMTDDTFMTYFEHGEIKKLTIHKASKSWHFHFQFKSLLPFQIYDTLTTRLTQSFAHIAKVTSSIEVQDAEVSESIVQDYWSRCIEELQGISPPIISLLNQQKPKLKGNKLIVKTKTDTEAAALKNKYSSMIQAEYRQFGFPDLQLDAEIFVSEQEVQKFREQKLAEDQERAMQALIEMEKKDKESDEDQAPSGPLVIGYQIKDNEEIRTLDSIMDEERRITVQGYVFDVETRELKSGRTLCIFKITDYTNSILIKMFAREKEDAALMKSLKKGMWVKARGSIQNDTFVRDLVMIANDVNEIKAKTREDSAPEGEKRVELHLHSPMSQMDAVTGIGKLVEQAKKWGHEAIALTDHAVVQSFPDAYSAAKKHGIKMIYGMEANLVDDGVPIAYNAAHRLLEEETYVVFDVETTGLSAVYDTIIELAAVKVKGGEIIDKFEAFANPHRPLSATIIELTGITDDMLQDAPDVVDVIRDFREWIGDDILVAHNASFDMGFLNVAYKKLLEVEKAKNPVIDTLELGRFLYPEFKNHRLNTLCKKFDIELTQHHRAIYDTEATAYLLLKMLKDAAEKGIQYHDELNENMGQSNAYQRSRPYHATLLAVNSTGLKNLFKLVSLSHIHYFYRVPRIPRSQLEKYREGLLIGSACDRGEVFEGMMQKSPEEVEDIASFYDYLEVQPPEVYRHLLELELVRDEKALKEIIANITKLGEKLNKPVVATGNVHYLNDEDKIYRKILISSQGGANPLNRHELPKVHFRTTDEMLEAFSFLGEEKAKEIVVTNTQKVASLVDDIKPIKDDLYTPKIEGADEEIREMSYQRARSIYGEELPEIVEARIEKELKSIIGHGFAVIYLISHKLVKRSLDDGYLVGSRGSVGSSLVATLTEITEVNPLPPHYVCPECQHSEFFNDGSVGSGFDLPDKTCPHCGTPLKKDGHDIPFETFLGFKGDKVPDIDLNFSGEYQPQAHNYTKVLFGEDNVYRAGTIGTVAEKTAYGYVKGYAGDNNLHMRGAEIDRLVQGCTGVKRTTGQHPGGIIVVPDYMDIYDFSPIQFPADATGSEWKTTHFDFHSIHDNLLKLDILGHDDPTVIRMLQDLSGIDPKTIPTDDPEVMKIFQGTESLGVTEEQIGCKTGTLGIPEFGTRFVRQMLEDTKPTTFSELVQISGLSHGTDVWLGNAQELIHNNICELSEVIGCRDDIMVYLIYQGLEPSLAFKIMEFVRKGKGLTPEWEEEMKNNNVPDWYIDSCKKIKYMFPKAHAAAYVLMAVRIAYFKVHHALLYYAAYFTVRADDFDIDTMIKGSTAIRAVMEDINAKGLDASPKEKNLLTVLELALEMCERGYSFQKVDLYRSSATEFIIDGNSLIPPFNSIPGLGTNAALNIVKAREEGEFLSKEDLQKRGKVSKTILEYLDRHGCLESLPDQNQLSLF
Experimental: Polymerase IIIC (Pol IIIC) assay. DNA polymerase activity (or inhibition thereof) was measured in a 96-well plate format. B. subtilis Pol IIIC was isolated as described by Hammond and Brown (Protein Expr. Purif., 3: 65-70 (1992)). Each 25 μl assay contained 30 mM Tris, pH 7.5, 10 mM magnesium acetate, 4 mM dithiothreitol, 20% glycerol, with 25 μM dATP, dCTP, dGTP and 10 μM dTTP (3H-labelled at 1.44 Ci/mmole) and 0.4 mg/ml activated calf thymus DNA as substrates, as described previously (see Barnes et al, op. cit). Assays were initiated by the addition of 0.025 to 0.06 units of enzyme 1 unit is the amount required to incorporate 250 pmoles of [^3H] dTMP in a standard assay), incubated for 10 minutes at 30° C. and terminated by the addition of 200 μl of cold 10% trichloroacetic acid (TCA), 10 mM sodium pyrophosphate. Precipitated labeled DNA was collected on glass fiber filter plates, washed, dried, and counted in a liquid scintillation counter.
Determination of Ki values. DNA polymerase activity was measured in a 96-well plate format in the absence of dGTP or dATP, depending on the structure of the test compound. Each 25 μl assay contained 30 mM Tris, pH 7.5, 10 mM magnesium acetate, 4 mM dithiothreitol, 20% glycerol, with 25 μM dATP, dCTP, and 10 μM dTTP (3H-labelled at 1.44 Ci/mmole) and 0.4 mg/ml activated calf thymus DNA as substrates, as described previously. To each well were added 2 μl of compound solution to give final concentrations ranging from 20-0.027 μg/ml in the assay. Assays were initiated by the addition of 0.025 to 0.06 units of enzyme (1 unit is the amount required to incorporate 250 pmoles of [^3H] dTMP in a standard assay), incubated for 10 minutes at 30° C. and terminated by the addition of 200 μl of cold 10% trichloroacetic acid, 10 mM sodium pyrophosphate. Precipitated labeled DNA was collected on glass fiber filter plates, washed, dried, and counted in a liquid scintillation counter. Ki is the concentration of test compound that reduces the control polymerase mc activity by 50 percent.

[4] = test system: vancomycin-resistant Enterococcus faecalis strain VRE 700802; assay: In vivo efficacy of Compound 70 in mouse model, VRE 700802; details: mice, 3 × 10^8 CFU/mouse +5% Mucin; positive control, 100 mg/kg, t = 0
Experimental: as §2, §3

[5] = test system: Enterococcus faecalis (ATCC 29212); assay: In vivo efficacy of Compound 70 in mouse model, Enterococcus faecalis; details: mice, 3 × 10^7 CFU/mouse +5% Mucin; positive control, 100 mg/kg, t = 0
Experimental: as §2, §3

[6] = Swiss Webster mice, dosage range 1-10 mg/kg body weight
[7] = HBI medium, 16 to 18 hours at 37° C.

## 3-{5-[1-(1-ethyl-3-carboxy-4-oxo-6,8-difluoro-7-quinolyl)-3-(1,3-diazabicyclononyl)]pentyl}-6-(3-ethyl-4-methylanilino)uracil [Compound 88]
E. fecium; second table
  MIC (μg/ml) E. fecium: 5 µg/mL
B. subtilis; second table
  MIC (μg/ml) B. subtilis: 0.625 µg/mL
S. aureus (Smith); second table
  MIC (μg/ml) S. a. (Smith): 1.25 µg/mL
E. coli; second table
  MIC (μg/ml) E. coil: >20 µg/mL
S. aureus; second table
  MIC (μg/ml) S. aureus: 1.25 µg/mL
E. fecalis; second table
  MIC (μg/ml) E. fecalis: 2.5 µg/mL

## CCc1cc(Nc2cc(=O)n(CCCCN3CCN(c4cc5c(cc4F)c(=O)c(C(=O)O)cn5CC)CC3)c(=O)[nH]2)ccc1C [Compound 1, 3-{4-[1-(1-ethyl-3-carboxy-4-oxo-6-fluoro-7-quinolyl)-4-piperazinyl]butyl}-6-(3-ethyl-4-methylanilino)uracil]
[1]
  MIC: 0.313 µg/mL (≈ 0.506 µM)
S. aureus (Smith); Staphylococcus aureus, table of clinically relevant strains, read-out: MIC (μg/ml) S. aureus (Smith)
  MIC: 0.313 µg/mL (≈ 0.506 µM)
S. aureus; Staphylococcus aureus, table of clinically relevant strains, read-out: MIC (μg/ml) S. aureus
  MIC: 0.313 µg/mL (≈ 0.506 µM)

## CCc1cc(Nc2cc(=O)n(CCCCN3CCN(c4cc5c(cc4F)c(=O)c(C(=O)O)cn5C4CC4)CC3)c(=O)[nH]2)ccc1C [Compound 2, 3-{4-[1-(1-cyclopropyl-3-carboxy-4-oxo-6-fluoro-7-quinolyl)-4-piperazinyl]butyl}-6-(3-ethyl-4-methylanilino)uracil]
[2]; [6]
  protection of infected mice (group of five): protection was afforded all five infected mice

## CCc1cc(Nc2cc(=O)n(CCCCN3CCN(c4cc5c(cc4F)c(=O)c(C(=O)O)cn5C4CC4)CC3)c(=O)[nH]2)ccc1C.CS(=O)(=O)O [Compound 10, 3-{4-[1-(1-cyclopropyl-3-carboxy-4-oxo-6-fluoro-7-quinolyl)-4-piperazinyl]butyl}-6-(3-ethyl-4-methylanilino)uracil methanesulfonate]
[2]; dose 0.3 mg per kg body weight
  infected mice protected from death (group of five): one of five
[2]; dose of 1 mg/kg or higher
  protection of infected mice (group of five): complete protection
[2]; [6]
  protection of infected mice (group of five): provided protection in the same dosage range as Compound 2

## CCc1cc(Nc2cc(=O)n(CCCCN3CCN(c4c(F)cc5c(=O)c(C(=O)O)cn(C6CC6)c5c4F)CC3C)c(=O)[nH]2)ccc1C (centres unmarked) [Compound 70, 3-{4-[1-(1-cyclopropyl-3-carboxy-4-oxo-6,8-difluoro-7-quinolyl)-4-(3-methylpiperazinyl)]butyl}-6-(3-ethyl-4-methylanilino)uracil]
[3]
  activity against intraperitoneal challenge: dose-related activity

## CCc1cc(Nc2ccc(NC(=O)N3CCN(c4cc5c(cc4F)c(=O)c(C(=O)O)cn5CC)CC3)c(=O)[nH]2)ccc1C [Compound 77, 3-{[1-(1-ethyl-3-carboxy-4-oxo-6-fluoro-7-quinolyl)-4-piperazinyl]carboxamido}-6-(3-ethyl-4-methylanilino)-2-pyridone]
B. subtilis Pol IIIC; second table
  Ki: 8 µM

## CCc1cc(Nc2cc(=O)n(CCCCO)c(=O)[nH]2)ccc1C [HB-EMAU, reference compound]
E. fecium; [7]
  MIC (μg/ml) E. fecium: 5 µg/mL (≈ 15.8 µM)
B. subtilis; [7]
  MIC (μg/ml) B. subtilis: 1.25 µg/mL (≈ 3.94 µM)
S. aureus (Smith); [7]
  MIC (μg/ml) S. aureus (Smith): 5 µg/mL (≈ 15.8 µM)
E. coli; [7]
  MIC (μg/ml) E. coli: >80 µg/mL
S. aureus; [7]
  MIC (μg/ml) S. aureus: 10 µg/mL (≈ 31.5 µM)
E. fecalis; [7]
  MIC (μg/ml) E. fecalis: 5 µg/mL (≈ 15.8 µM)
B. subtilis Pol IIIC
  Ki: 0.066 µM

## O=C(O)c1cn(C2CC2)c2cc(N3CCNCC3)c(F)cc2c1=O [cflxn, ciprofloxacin]
[4]
  % Survival at 72 hours: 90% (9/10)**
B. subtilis Pol IIIC
  Ki (μM) Pol IIIC: inactive

## CCn1cc(C(=O)O)c(=O)c2cc(F)c(N3CCNCC3)cc21 [nflxn, norfloxacin]
B. subtilis Pol IIIC
  Ki (μM) Pol IIIC: inactive

## CN[C@H](CC(C)C)C(=O)N[C@H]1C(=O)N[C@@H](CC(N)=O)C(=O)N[C@H]2C(=O)N[C@H]3C(=O)N[C@H](C(=O)N[C@H](C(=O)O)c4cc(O)cc(O)c4-c4cc3ccc4O)[C@H](O)c3ccc(c(Cl)c3)Oc3cc2cc(c3O[C@@H]2O[C@H](CO)[C@@H](O)[C@H](O)[C@H]2O[C@H]2C[C@](C)(N)[C@H](O)[C@H](C)O2)Oc2ccc(cc2Cl)[C@H]1O [vancomycin]
[5]
  % Survival at 72 hours: 100% (10/10)**
